The values that follow come from US8513234B2, “HIV integrase inhibitors” (Merck Sharp & Dohme Corp., priority 2008, dated 2013).

For one series, the system named is HIV-1. The experiment in a line: Inhibition of acute HIV-1 infection of T-lymphoid cells (spread assay). In kind it is cell-based. On the procedure:
Assay for Inhibition of HIV-1 Replication
Assays for the inhibition of acute HIV-1 infection of T-lymphoid cells were conducted in accordance with Vacca, J. P. et al, Proc. Natl. Acad. Sci. USA 1994, 91: 4096.

A further series has as its system wild type IIIB. The experiment in a line: Single cycle infectivity assay in HeLa P4-2 cells, wild type virus. In kind it is cell-based, HIV. The conditions noted are these: Human immunodeficiency virus 1, IIIB, HeLaP4-2, HeLa P4-2 cells, single cycle infectivity, wild type IIIB; read-out: wild type IIIB IC50.
Series [1] has as its target T1, recombinant integrase (HIV-1 integrase) (Human immunodeficiency virus type 1 group M subtype B, UniProt P04585).
T1 construct: Assays for the strand transfer activity of integrase were conducted in accordance with WO 02/30930 for recombinant integrase
The experiment in a line: HIV-1 integrase assay: strand transfer catalyzed by recombinant integrase. The class given is biochemical. The conditions noted are these: strand transfer activity, read-out: IC50. How it is done: HIV-1 Integrase Assay: Strand Transfer Catalyzed by Recombinant Integrase
Assays for the strand transfer activity of integrase were conducted in accordance with WO 02/30930 for recombinant integrase. […] For example, the compounds prepared in Examples 1 to 5 were tested in the integrase assay and found to have the IC50 values in Table B. (Compounds 6A and 6B were not tested in this assay.)
Further description on conducting the assay using preassembled complexes is found in Wolfe, A. L. et al., J. Virol. 1996, 70: 1424-1432, Hazuda et al., J. Virol. 1997, 71: 7005-7011; Hazuda et al., Drug Design and Discovery 1997, 15: 17-24; and Hazuda et al., Science 2000, 287: 646-650.

In series [2] the test system is virus containing Q148R mutation in the integrase gene. The settings on record: k = IC50(mutant)/IC50(wild type). On the procedure:
(§1) An assay for measuring the inhibition of acute HIV infection with HeLa P4-2 cells in a single cycle infectivity assay was conducted using methods described in Joyce et al., J. Biol. Chem. 2002, 277: 45811, Hazuda et al., Science 2000, 287: 646, and Kimpton et al, J. Virol. 1992, 66: 2232. Proviral plasmids encoding viruses containing specific mutations in the integrase gene (N155H, Q148R, Y143R, E92Q, or G140S/Q148H) were generated by site-directed mutagenesis, and viruses were produced by transfecting 293T cells with the appropriate proviral plasmids.

Series [3] relates to virus containing N155H mutation in the integrase gene. The settings on record: k = IC50(mutant)/IC50(wild type). On the procedure:
as §1

The subject of series [4] is virus containing E92Q mutation in the integrase gene. The conditions noted are these: k = IC50(mutant)/IC50(wild type). How it is done:
as §1

Series [5] deals with virus containing Y143R mutation in the integrase gene. The settings on record: k = IC50(mutant)/IC50(wild type). How it is done: as §1
For series [6], the system named is virus containing G140S/Q148H mutation in the integrase gene. The settings on record: k = IC50(mutant)/IC50(wild type). On the procedure:
as §1

`CO[C@]1(C)CC[C@@H](N(C)C(=O)C(=O)N(C)C)c2nc(C(=O)NCc3ccc(F)c(C)c3)c(O)c(=O)n2C1` [Compound 2A, N-((7R,10R)-2-{[(4-fluoro-3-methylbenzyl)amino]carbonyl}-3-hydroxy-7-methoxy-7-methyl-4-oxo-4,6,7,8,9,10-hexahydropyrimido[1,2-a]azepin-10-yl)-N,N′,N′-trimethylethanediamide]: the “IC95 (nM) in the presence of 10% FBS” value in the series with HIV-1 came out at 14 nM. Moreover, the values for the IC50 (in the series with wild type IIIB; in series [1]) were 17 nM and 37 nM, respectively. In addition, the “Number of fold shift in IC50 versus wild type IIIB, Q148R” value in series [2] is given as 1. For the same molecule, in series [3], the “Number of fold shift in IC50 versus wild type IIIB, N155H” value came to 2. For the same molecule, the “Number of fold shift in IC50 versus wild type IIIB, E92Q” value in series [4] is on record as 1. In series [5], the “Number of fold shift in IC50 versus wild type IIIB, Y143R” value turned out to be 2. For the same molecule, in series [6], the “Number of fold shift in IC50 versus wild type IIIB, G140S/Q148H” value came to 10.
